Laboratory results from ChEMBL document CHEMBL4425173, “Synthesis, biological evaluation and molecular modeling studies of psammaplin A and its analogs as potent histone deacetylases inhibitors and cytotoxic agents” (Bioorg Med Chem Lett, 2016).
The source made the active and inactive calls. The calls are words filed in the database; no cut-off is given here.

Key:
Histone deacetylase = experiment: Inhibition of HDAC in human HeLa cells using Fluor deLys as substrate assessed as deacetylation of substrate by fluorescence assay; format: cell-based
PC-3 = experiment: Cytotoxicity against human PC3 cells assessed as reduction in cell growth inhibition after 96 hrs by MTT assay; format: functional; settings: PC-3, 96 h
HL-60 = experiment: Cytotoxicity against human HL60 cells assessed as reduction in cell growth inhibition after 72 hrs by trypan blue-staining based hemocytometric analysis; format: functional; settings: HL-60, 72 h
A549 = experiment: Cytotoxicity against human A549 cells assessed as reduction in cell growth inhibition after 96 hrs by MTT assay; format: functional; settings: A549, 96 h
MCF7 = experiment: Cytotoxicity against human MCF7 cells assessed as reduction in cell growth inhibition after 96 hrs by MTT assay; format: functional; settings: MCF7, 96 h
[1] = target: Histone deacetylase (Homo sapiens) (UniProt Q13547+O15379+Q9UBN7+Q92769+Q9UQL6+Q8WUI4+Q9BY41+Q96DB2+P56524+Q9UKV0+Q969S8); experiment: Inhibition of HDAC in human HL60 cells assessed as upregulation of H3 acetylation levels at 2 uM after 18 hrs by SDS-PAGE analysis; format: cell-based

| IC50 (Histone deacetylase) [µM] | H3 acetylation upregulation (active/not active) [1] | Compound | GI50 (PC-3) [µM] | GI50 (HL-60) [nM] | GI50 (A549) [µM] | GI50 (MCF7) [µM] |
| --- | --- | --- | --- | --- | --- | --- |
| 1.81 | – | O=C(NCCSSCCNC(=O)c1cc(-c2ccc(O)cc2)[nH]n1)c1cc(-c2ccc(O)cc2)[nH]n1 | 19.8 | 4110 | – | – |
| 1.86 | – | COc1ccc(-c2cc(C(=O)NCCSSCCNC(=O)c3cc(-c4ccc(OC)c(Br)c4)[nH]n3)n[nH]2)cc1Br | 16.9 | 5520 | – | – |
| 8.59 | – | CO/N=C(\Cc1ccc(Cl)cc1Cl)C(=O)NCCSSCCNC(=O)/C(Cc1ccc(Cl)cc1Cl)=N/OC | > 50 | 8640 | 47.1 | 16.5 |
| 4.65 | – | COc1ccc(-c2cc(C(=O)NCCSSCCNC(=O)c3cc(-c4ccc(OC)c(Br)c4)on3)no2)cc1Br | 39 | 13300 | – | – |
| 3.15 | – | CO/N=C(\Cc1ccc(OC)cc1)C(=O)NCCSSCCNC(=O)/C(Cc1ccc(OC)cc1)=N/OC | 26.8 | 5180 | 38.3 | 16.4 |
| 0.21 | – | O=C(NCCSSCCNC(=O)/C(Cc1cccc(Cl)c1)=N/O)/C(Cc1cccc(Cl)c1)=N/O | 5.19 | 570 | 5.42 | 3.51 |
| 0.04 | Active | COc1cc(C/C(=N\O)C(=O)NCCSSCCNC(=O)/C(Cc2ccc(O)c(OC)c2)=N/O)ccc1O | 3.41 | 280 | 4.84 | 2.47 |
| 0.03 | Active | COc1ccc(C/C(=N\O)C(=O)NCCSSCCNC(=O)/C(Cc2ccc(OC)c(O)c2)=N/O)cc1O | 3.27 | 230 | 4.74 | 2.7 |
| 0.12 | – | O=C(NCCSSCCNC(=O)/C(Cc1ccc(O)cc1)=N/O)/C(Cc1ccc(O)cc1)=N/O | 5.33 | 620 | 6.54 | 4.62 |
| 0.68 | – | O=C(NCCSSCCNC(=O)c1cc(-c2ccc(O)c(Br)c2)[nH]n1)c1cc(-c2ccc(O)c(Br)c2)[nH]n1 | 17.1 | 6140 | – | – |
| 0.12 | – | COc1ccc(C/C(=N\O)C(=O)NCCSSCCNC(=O)/C(Cc2ccc(OC)cc2)=N/O)cc1 | 5.5 | 780 | 6.85 | 2.68 |
| 8.31 | – | COc1ccc(-c2cc(C(=O)NCCSSCCNC(=O)c3cc(-c4ccc(OC)cc4)on3)no2)cc1 | > 50 | 18300 | – | – |
| 0.05 | Active | O=C(NCCSSCCNC(=O)/C(Cc1ccc(O)c(Br)c1)=N/O)/C(Cc1ccc(O)c(Br)c1)=N/O [PSAMMAPLIN A] | 3.52 | 290 | 4.5 | 2.26 |
| 0.13 | Active | O=C(NCCSSCCNC(=O)/C(Cc1ccc2c(c1)OCO2)=N/O)/C(Cc1ccc2c(c1)OCO2)=N/O | 2.4 | 670 | 4.78 | 3.77 |
| 0.27 | – | O=C(NCCSSCCNC(=O)/C(Cc1cccc(C(F)(F)F)c1)=N/O)/C(Cc1cccc(C(F)(F)F)c1)=N/O | 6.78 | 520 | 4.48 | 3.48 |
| 2.77 | – | COc1ccc(-c2cc(C(=O)NCCSSCCNC(=O)c3cc(-c4ccc(OC)cc4)[nH]n3)n[nH]2)cc1 | 26.6 | 6450 | – | – |
| 4.5 | – | CO/N=C(\Cc1cccc(Cl)c1)C(=O)NCCSSCCNC(=O)/C(Cc1cccc(Cl)c1)=N/OC | 23.1 | 6550 | 32 | 14.3 |
| 0.21 | – | CC(C)c1ccc(C/C(=N\O)C(=O)NCCSSCCNC(=O)/C(Cc2ccc(C(C)C)cc2)=N/O)cc1 | 2.67 | 500 | 4.61 | 3.91 |
| 0.28 | – | O=C(NCCSSCCNC(=O)/C(Cc1ccc(Cl)cc1Cl)=N/O)/C(Cc1ccc(Cl)cc1Cl)=N/O | 4.61 | 870 | 6.79 | 4.98 |
| 7.65 | inactive | CO/N=C(\Cc1ccc(C)cc1)C(=O)NCCSSCCNC(=O)/C(Cc1ccc(C)cc1)=N/OC | > 50 | 11900 | > 50 | > 50 |
| 3.14 | – | O=C(NCCSSCCNC(=O)c1cc(-c2ccc(O)cc2)on1)c1cc(-c2ccc(O)cc2)on1 | 31.7 | 11600 | – | – |
| 0.26 | Active | Cc1ccc(C/C(=N\O)C(=O)NCCSSCCNC(=O)/C(Cc2ccc(C)cc2)=N/O)cc1 | 6.43 | 740 | 8.35 | 4.3 |
